# Results: PubChem BioAssay AID179 (DTP/NCI, 2004)
# Where “and” joins values, the source holds several entries; their conditions need not be identical. Equal entries are not always repeated. Calls of active or inactive are those of the source.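 How the source made its calls: active means compounds giving half or more protection of infected cells from virus-caused growth loss, again on retest; inactive means the rest.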 Where a SMILES comes first, the peptide text is derived from it. The star is where a group is joined. Boc = CC(C)(C)OC(=O)*; OBn = c1ccc(CO*)cc1
# Test system: CEM cells HIV-1 protection, formazan growth assay
# Assay: NCI AIDS Antiviral Assay
# Conditions: for IC50: measured here: growth of uninfected CEM cells
# Method in brief: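 Protection of CEM cells against HIV-1 measured as cell growth via soluble formazan read-out, with five concentrations tested on both infected and uninfected cells; failure to protect may reflect toxicity.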
Structure (SMILES),EC50,IC50,outcome
Cc1c(C)c2ccc3occc(=O)c3c2oc1=O,> 195 µM,95.5 µM,–
CC(C)CC(F)(C(N)=O)C(N)=O,> 200 µM,> 200 µM,–
COc1ccc(C2CCC(=O)CC2C(=O)O)cc1 (centres undefined),> 417 µM,> 417 µM,–
Cc1ccc(C[N+](C)(C)c2ccccc2)o1,> 724 µM,102 µM,–
CCN(CC)CCNC(=O)c1ccc(I)cc1,> 200 µM,> 200 µM,–
COc1cc(/C=C2\CCC(C)C3C2=NN(C(C)=O)C3c2cc(OC)c(OC)c(OC)c2)cc(OC)c1OC (centres undefined),> 100 µM,> 100 µM,–
CSCCC(N)C(=O)NCCS(=O)(=O)O (centres undefined),> 200 µM,> 200 µM,–
CNc1nc(OC)c2c(n1)[n+](C)cn2C,> 200 µM,61.7 µM,–
COC(=N)CCSSCCC(=N)OC,> 200 µM,> 200 µM,–
Cc1cccc(C)c1NC(=S)N/C=C(\C#N)C(N)=O,> 200 µM,> 200 µM,–
COc1cc(OC)c(/C=N\Nc2nc3ccccc3c(=O)n2-c2ccccc2)c(OC)c1,> 50.1 µM,37.2 µM,–
COc1cc2c(c(OC3OC(CO)C(O)C(O)C3O)c1)C(=O)CC(c1ccc(O)cc1)O2 (centres undefined),> 200 µM,195 µM,–
COc1ccc(/C=C2\N=C3N(Cc4ccccc4)C=C(N)N3C2=O)cc1,> 200 µM,> 200 µM,–
CN(C)C(n1cc2c(c1)-c1ccc(Cl)cc1C(c1ccccc1F)=NC2)n1cc2c(c1)-c1ccc(Cl)cc1C(c1ccccc1F)=NC2,> 100 µM,95.5 µM,–
COc1cccc2c(NNc3ccc(Cl)cc3)c3ccc([N+](=O)[O-])cc3nc12,> 200 µM,12.3 µM,–
COc1cc2c(cc1OC)C(Cc1ccccc1NC(=O)c1ccc(C(=O)Nc3ccccc3CC3c4cc(OC)c(OC)cc4CCN3C)cc1)N(C)CC2 (centres undefined),–,–,inactive
O=C1NC(N2CCOCC2)=N/C1=C\c1cccs1,> 200 µM,> 200 µM,–
CCC(C)C(N)C(=O)NC(C(=O)NC(CO)C(=O)NC(C)C(=O)NC(CO)C(=O)NC(C(=O)NC(CCCCN)C(=O)NC(CCCCN)C(=O)NC(CO)C(=O)NC(Cc1ccccc1)C(=O)O)C(C)CC)C(C)CC (centres undefined) (H-IISASIKKSF-OH; configuration not given here),–,–,inactive
COc1cc(C2c3cc4c(cc3[C@H](NS(C)(=O)=O)C3COC(=O)[C@H]23)OCO4)cc(OC)c1OC (some centres undefined),–,–,inactive
O=C1CN(C(=O)c2ccccc2)Cc2[nH]c3ccccc3c21,–,–,inactive
O=S(=O)(O/C1=C/CCCCCC1)C(F)(F)F,> 100 µM,> 100 µM,–
O=C1c2ccccc2Sc2ccccc2N1CCCN1CCN(c2ccc(F)cc2)CC1,> 200 µM,33.9 µM,–

Structure (SMILES),EC50,IC50,outcome
CCOC(=O)c1nn2c(nc1=O)sc1ccc3ccccc3c12,> 69.2 µM,> 69.2 µM,–
CCN(CC)CCOC(=O)c1cc2ccccc2n1Cc1ccccc1,> 100 µM,> 100 µM,–
C=C(C)COc1ccc(C2OCC(CC)C(CCC)O2)cc1 (centres undefined),> 200 µM,89.1 µM,–
O=C(NCc1ccccc1)C1C(=O)C(=O)N(Cc2ccccc2)C1=O (centres undefined),> 269 µM,> 269 µM,–
COC(=O)c1ccc(NCc2c(O)ccc(O)c2Br)cc1Cl,> 14.8 µM,6.46 µM,–
COc1ccc(/C=C2\Oc3cc(OC(C)=O)ccc3C2=O)cc1,> 200 µM,37.2 µM,–
C[P+]1(C)CCc2c1ccc1ccccc21,–,–,inactive
O=C1OC(=O)C2C1C1C(c3ccccc3)=C(c3ccccc3)C2(O)C2C(=O)OC(=O)C12 (centres undefined),> 17.4 µM,10.2 µM,–
CC1NOC(=O)C1N=Nc1ccccc1Cl (centres undefined),> 151 µM,70.8 µM,–
CC(C)(Cc1ccccc1)Cc1cc(O)ccc1O,1.29 µM,7.24 µM,–
CCO/C=N\c1c(C#N)c(-c2ccc(Cl)cc2)cn1-c1ccc(C)cc1,> 200 µM,25.1 µM,–
O=S(=O)(O)C(O)CCCC(O)S(=O)(=O)O (centres undefined),> 200 µM,10.7 µM,–
O=[N+]([O-])O,> 200 µM,> 200 µM,–
[N-]=[N+]=Nc1c(C=O)c(=O)n(-c2ccccc2)c2ccccc12,> 200 µM,21.9 µM,–
C[N+](C)(C)CC1CCCC(C[N+](C)(C)C)C1O (centres undefined),–,–,inactive
O=c1cc(CC(O)(C(F)(F)Cl)C(F)(F)Cl)[nH]n1-c1ccccc1,> 200 µM,117 µM,–
O=C1C(C2CCCCC2)=C2OCC3COC2(O3)c2ccccc21 (centres undefined),> 74.1 µM,30.2 µM,–
Cc1cc(S(=O)(=O)Nc2cc(N)[nH]n2)c(SCc2nc(N)nc(N(C)C)n2)cc1Cl,> 200 µM,> 200 µM,–
CC1CC(C2=CC=CCS2)=Nc2ccccc2S1 (centres undefined),> 55 µM,53.7 µM,–
COc1ccc2c(c1)CCN=C2Cc1ccccc1CCCl,> 200 µM,26.3 µM,–
CCCCOC(=S)SSC(=S)OCCCC,> 56.2 µM,11.5 µM,–
Oc1ccc(-c2nc(=S)[nH][nH]2)cc1,> 933 µM,72.4 µM,–

Structure (SMILES),EC50,IC50,outcome
Cc1cc(N(C)C)c(C=O)c(C)c1C=O,> 1230 µM,93.3 µM,–
N=C(N)c1ncn(C2OC(CO)C(O)C2O)n1 (centres undefined),–,–,inactive
O=[N+]([O-])c1ccc(C2OC3CC4C5CCCC5C3C4O2)cc1 (centres undefined),> 200 µM,19.5 µM,–
CCOC(=O)/C(=C\c1ccccc1Cl)P(=O)(OCC)OCC,> 20.9 µM,11.7 µM,–
Cc1cc(Cl)ccc1C1OC(=O)c2c1ccc1ccccc21 (centres undefined),> 23.4 µM,> 23.4 µM,–
CC(C)CC(NC(=O)OC(C)(C)C)C(=O)NC(CC(=O)OCc1ccccc1)C(=O)OCc1ccccc1 (stereo not drawn) (Boc-Leu-Asp(OBn)-OBn; configuration not given here),> 200 µM,33.1 µM,–
CC1=N/C(=C\c2ccc(N)cc2)C(=O)N1Nc1nnc(NN2C(=O)/C(=C/c3ccc(N)cc3)N=C2C)c2ccccc12,–,–,inactive
COc1c2c(cc3oc(C)c(C)c(=O)c13)OC(C)(C)C=C2,> 200 µM,81.3 µM,–
CC(=O)NC1C(OCc2ccccc2)OC(CO)C(O)C1OCC(=O)N1CCCC1C(=O)N[C@@H](CCC(=O)NCCNCCNc1c2ccccc2nc2cccc([N+](=O)[O-])c12)C(N)=O (some centres undefined),> 100 µM,1.51 µM,–
Cc1cc(N=Nc2ccc([N+](=O)[O-])cc2)c(NCC(O)C(O)C(O)CO)cc1C (centres undefined),> 200 µM,34.7 µM,–
CC1=Nc2ccccc2C12C(c1ccccc1)CC(=O)N1c3ccccc3CC12 (centres undefined),> 33.9 µM,> 33.9 µM,–
C=CCOC(=O)C1(C)C(=O)CCC1CC/C=C/C(C)=O (centres undefined),> 129 µM,6.03 µM,–
COc1cc2c(c(OC)c1OC)C(=O)[C@H](O)[C@H]2NC(N)=O,> 200 µM,105 µM,–
N#CC1C(=O)NC(=O)C1=O (centres undefined),> 1820 µM,> 1820 µM,–
N#C/C(=C\c1ccc(O)c(O)c1)C(N)=O,> 25.1 µM,10.5 µM,–
O=C(c1ccc(Cl)cc1)c1ccc(OCCCOc2ccc(C(=O)c3ccc(Cl)cc3)cc2)cc1,> 20 µM,> 20 µM,–
O=Cc1c2c(cc3c1CC1(C3)Cc3cc4c(c(C=O)c3C1)CCC4)CCC2,> 200 µM,34.7 µM,–
COc1cc(C(c2cccc3ccccc23)N2C(=O)CCC2C(=O)NCc2ccccc2)cc(OC)c1OC (centres undefined),> 200 µM,> 200 µM,–
O=c1oc2ccccc2c(O)c1-c1cccc2ccccc12,–,–,inactive
CN1C(CC(O)c2ccccc2)CCCC1CC(O)c1ccccc1 (centres undefined),> 200 µM,> 200 µM,–
O=CC(O)C(O)C(O)C(O)CON1C[C@@H](O)C(O)[C@@H](O)C1 (some centres undefined),> 200 µM,> 200 µM,–
Cc1ccc(NC(=O)/C(CC2N=c3c(ccc4c(O)c5ccccc5c(O)c34)=NC2O)=N/NC(C)(C)C)cc1 (centres undefined),> 10 µM,> 10 µM,–

Structure (SMILES),EC50,IC50,outcome
Cc1cc(C)c(C(=O)O)c(N)c1O,–,–,inactive
CC(C)CCCC(C)[C@H]1CC[C@H]2[C@@H]3CC[C@H]4C[C@@H](CCCC(c5cc(Cl)c(OCc6ccc(C(=O)O)cc6)c(C(=O)O)c5)c5cc(Cl)c(OCc6ccc(C(=O)O)cc6)c(C(=O)O)c5)CC[C@]4(C)[C@H]3CC[C@]12C (some centres undefined),20.4 µM and 3.39 µM,> 200 µM and 20 µM,–
NCCCN1CCN(CCCNc2ccc3nnn4c5ccccc5c(=O)c2c34)CC1,> 100 µM,5.89 µM,–
CC1(C(=O)Nc2ccccc2)CC2(C)CC(C)(C1)C(O)NC2=O (centres undefined),–,–,inactive
CCCC(=O)Nc1cc(C)c(NC(=O)CN(CC)CC)c(C)c1,> 200 µM,> 200 µM,–
N#C/C(=C\N1CC(=O)NC1=S)C(N)=O,> 200 µM,> 200 µM,–
COC(=O)[C@@H](NC(=O)N(Cc1ccccc1)C[C@H](CC(C)C)NC(=O)[C@@H](NC(=O)OC(C)(C)C)C(C)C)C(C)C,> 200 µM,> 100 µM,–
CCC[CH2][Sn]1([CH2]CCC)[O]CC(CN2CCOCC2)[O]1 (centres undefined),> 4.57 µM,0.295 µM,–
COC(=O)CCCC=C(c1cc(Cl)c(OC)c(C(=O)OC)c1)c1cc(Cl)c(OC)c(C(=O)OC)c1,1.62 µM,21.4 µM,–
NCCSS(=O)(=O)CCN,> 363 µM,–,–
CCCCN(CCCC)CCCNc1c2c(nc3cc(Cl)ccc13)CCCC2,> 200 µM,38.9 µM,–
COC1/C=C/OC2(C)Oc3c(C)c(O)c4c(O)c(c(/C=N/N5CCOCC5)c(O)c4c3C2=O)NC(=O)C(C)=C/C=C\C(C)C(O)C(C)C(O)C(C)C(O)C1C (centres undefined),> 126 µM,72.4 µM,–
CCC/C(Cl)=N\OC(=O)Nc1cccc(C(F)(F)F)c1,> 200 µM,6.76 µM,–
CCOC(=O)/N=N/C(C)(C)OC(C)=O,> 200 µM,> 200 µM,–
Cc1cc(Cc2cc(C)cc(S(=O)(=O)O)c2O)c(O)c(S(=O)(=O)O)c1,209 µM,646 µM,–
CC(C)(c1ccc(OC#N)cc1)c1ccc(OC#N)cc1,> 67.6 µM,> 67.6 µM,–
COc1cc(NC=O)c2c(c1)SC(c1ccccc1)C(=O)N2 (centres undefined),> 200 µM,56.2 µM,–
O=[N+]([O-])c1cc(NN=C(c2ccccc2)c2ccccc2)cc([N+](=O)[O-])c1,> 3.98 µM,> 3.98 µM,–
CC(=O)[O][Hg][CH2]C(O)Cn1c(=O)c2c(ncn2C)n(C)c1=O (centres undefined),–,–,inactive
CC(C)C1CN1CC(O)Cn1ccnc1[N+](=O)[O-] (centres undefined),> 200 µM,> 200 µM,–
